Measured values reported in the NIST ThermoML archive (doi:10.1021/je025649t).

Key:
[1] = xn = mol fraction of the nth substance listed; conditions: 298.15 K, 101 kPa, Liquid, Vibrating tube method
[2] = excess molar enthalpy (molar enthalpy of mixing); xn = mol fraction of the nth substance listed; conditions: 298.15 K, 101 kPa, Liquid, Flow calorimetry
[3] = refractive index (Na D-line) (dimensionless); xn = mol fraction of the nth substance listed; conditions: 298.15 K, 101 kPa, Liquid, refractometer
[4] = heat capacity at constant pressure per volume; xn = mol fraction of the nth substance listed; conditions: 298.15 K, 101 kPa, Liquid, Flow calorimetry

O=C1CCCC1 [cyclopentanone] + C1CCOCC1
Conditions	excess molar enthalpy [kcal/mol]	heat capacity [J/K/m3]	mass density [kg/m3]	refractive index
[1], x2 = 0.0621	–	–	939.88	–
[1], x2 = 0.1532	–	–	933.66	–
[1], x2 = 0.2354	–	–	928.1	–
[1], x2 = 0.309	–	–	923.12	–
[1], x2 = 0.3167	–	–	922.64	–
[1], x2 = 0.346	–	–	920.67	–
[1], x2 = 0.3516	–	–	920.32	–
[1], x2 = 0.3936	–	–	917.52	–
[1], x2 = 0.3997	–	–	917.16	–
[1], x2 = 0.4297	–	–	915.15	–
[1], x2 = 0.4312	–	–	915.07	–
[1], x2 = 0.4661	–	–	912.74	–
[1], x2 = 0.4676	–	–	912.7	–
[1], x2 = 0.5105	–	–	909.9	–
[1], x2 = 0.5187	–	–	909.32	–
[1], x2 = 0.5466	–	–	907.55	–
[1], x2 = 0.5498	–	–	907.3	–
[1], x2 = 0.5959	–	–	904.37	–
[1], x2 = 0.6289	–	–	902.25	–
[1], x2 = 0.6335	–	–	901.96	–
[1], x2 = 0.6618	–	–	900.16	–
[1], x2 = 0.708	–	–	897.22	–
[1], x2 = 0.7941	–	–	891.79	–
[1], x2 = 0.8569	–	–	887.85	–
[1], x2 = 0.9351	–	–	882.98	–
[1], x2 = 0.939	–	–	882.71	–
[2], x2 = 0.1	0.0127	–	–	–
[2], x2 = 0.15	0.0181	–	–	–
[2], x2 = 0.2	0.023	–	–	–
[2], x2 = 0.25	0.0271	–	–	–
[2], x2 = 0.3	0.0304	–	–	–
[2], x2 = 0.35	0.0331	–	–	–
[2], x2 = 0.4	0.0353	–	–	–
[2], x2 = 0.45	0.0368	–	–	–
[2], x2 = 0.5	0.0377	–	–	–
[2], x2 = 0.55	0.0378	–	–	–
[2], x2 = 0.6	0.0371	–	–	–
[2], x2 = 0.65	0.0357	–	–	–
[2], x2 = 0.7	0.0336	–	–	–
[2], x2 = 0.75	0.0306	–	–	–
[2], x2 = 0.8	0.0267	–	–	–
[2], x2 = 0.85	0.0219	–	–	–
[2], x2 = 0.9	0.0158	–	–	–
[3], x2 = 0.0723	–	–	–	1.4337
[3], x2 = 0.153	–	–	–	1.43231
[3], x2 = 0.2311	–	–	–	1.43098
[3], x2 = 0.3083	–	–	–	1.42967
[3], x2 = 0.3514	–	–	–	1.42895
[3], x2 = 0.3917	–	–	–	1.42828
[3], x2 = 0.4314	–	–	–	1.42762
[3], x2 = 0.4691	–	–	–	1.427
[3], x2 = 0.5026	–	–	–	1.42645
[3], x2 = 0.5485	–	–	–	1.42571
[3], x2 = 0.5911	–	–	–	1.42502
[3], x2 = 0.6215	–	–	–	1.42454
[3], x2 = 0.6618	–	–	–	1.4239
[3], x2 = 0.7097	–	–	–	1.42314
[3], x2 = 0.7897	–	–	–	1.42189
[3], x2 = 0.8648	–	–	–	1.42073
[3], x2 = 0.9456	–	–	–	1.41948
[4], x2 = 0.0715	–	1697900	–	–
[4], x2 = 0.1485	–	1683000	–	–
[4], x2 = 0.2279	–	1667700	–	–
[4], x2 = 0.3826	–	1638300	–	–
[4], x2 = 0.4613	–	1623300	–	–
[4], x2 = 0.5422	–	1608000	–	–
[4], x2 = 0.6258	–	1592400	–	–
[4], x2 = 0.6965	–	1579400	–	–
[4], x2 = 0.777	–	1564600	–	–
[4], x2 = 0.8588	–	1549700	–	–
[4], x2 = 0.9378	–	1535300	–	–
